Reference: patent US12350270B2, “Antimalarial agents” (Merck Sharp & Dohme LLC, priority 2019, dated 2025)

test system: parasites (ring stage, in human red blood cell culture); experiment: Parasite LDH growth assay (antiparasite potency, Parasite Assay); type: cell-based, Plasmodium falciparum; conditions: 0.7% rings, 2% haematocrit, 72 hours at 37° C., LDH readout of parasite growth
Method: Assessing Antiparasite Potency in a Parasite LDH Growth Assay (Parasite Assay)
The parasite stock was maintained at 4% haematocrit in RPMI-Hepes media buffered with sodium bicarbonate and supplemented with 5% heat inactivated human serum and 0.5% albumax.
On the day of assay set up, a blood smear of the parasite culture was Giemsa stained and counted. The parasitemia was adjusted to 0.7% rings and the haematocrit was diluted to 2% in RPMI-Hepes media buffered with sodium bicarbonate and supplemented with 5% heat inactivated human serum and 0.5% albumax. 30 ul of diluted parasites are then added into 10 ul of media+compound in pre-prepared Greiner TC assay plates. Parasite assay plates were placed in gassed humidified boxes in single layer and allowed to incubate at 37° C. for 72 hours. After 72 hours growth, assay plates are sealed with parafilm and frozen flat, in single file at −80° C. overnight. On the following day, assay plates are allowed to thaw at room temperature for 4 hours to which an LDH assay is performed to measure parasite growth.

Compared with `CC[C@]1(C)CC(=O)N([C@@H]2CCOc3ccc(C(=O)NC4c5cc(F)ccc5OCC4(C)O)cc32)C(=N)N1` (single isomer, unassigned) [Example 190C], `CCC1(CC)CC(=O)N([C@@H]2CCOc3ccc(C(=O)NC4c5cc(F)ccc5OCC4(C)O)cc32)C(=N)N1` (single isomer, unassigned) [Example 226A] is 1.9-fold lower in EC50: 4.9 nM for the first, 2.6 nM for the second.

Compared with `CC[C@]1(C)CC(=O)N([C@@H]2CCOc3ccc(C(=O)NC4c5c(F)cccc5OCC4(C)O)cc32)C(=N)N1` (single isomer, unassigned) [Example 193A], `CCC1(CC)CC(=O)N([C@@H]2CCOc3ccc(C(=O)NC4c5c(OC)cccc5OCC4(C)O)cc32)C(=N)N1` (single isomer, unassigned) [Example 259A] is 18-fold lower in EC50: 96.4 nM for the first, 5.5 nM for the second. The second is the more potent here.

First: CC[C@]1(C)CC(=O)N([C@@H]2CCOc3ccc(C(=O)NC4c5c(F)cccc5OCC4(C)O)cc32)C(=N)N1 (single isomer, unassigned) [Example 193B]
Second: CCC1(CC)CC(=O)N([C@@H]2CCOc3ccc(C(=O)NC4c5c(OC)cccc5OCC4(C)O)cc32)C(=N)N1 (single isomer, unassigned) [Example 259B]
The EC50 of the first is 30-fold lower: 0.8 nM for the first, 24.2 nM for the second. The first is the more potent here.

First: CC[C@]1(C)CC(=O)N([C@@H]2CCOc3ccc(C(=O)NC4c5c(F)cccc5OCC4(C)O)cc32)C(=N)N1 (single isomer, unassigned) [Example 193C]
Second: CCC1(CC)CC(=O)N([C@@H]2CCOc3ccc(C(=O)NC4c5c(OC)cccc5OCC4(C)O)cc32)C(=N)N1 (single isomer, unassigned) [Example 259C]
The EC50 of the first is 5.4-fold higher: 19.5 nM for the first, 3.6 nM for the second.

`COCC1(C)Oc2ccc(C(=O)N[C@H]3CC(C)(C)Oc4ccccc43)cc2C1N1C(=N)NC(C)(C)CC1=O` (single isomer, unassigned) [Example 214A] and `COCC1(C)CC(N2C(=N)NC(C)(C)CC2=O)c2cc(C(=O)N[C@@H]3c4ccccc4OC(C)(C)[C@H]3O)ccc2O1` (single isomer, unassigned) [Example 282A] are within 1.5-fold of each other in EC50: 8.2 nM for the first, 7.8 nM for the second.

Going from `COCC1(C)Oc2ccc(C(=O)N[C@H]3CC(C)(C)Oc4ccccc43)cc2C1N1C(=N)NC(C)(C)CC1=O` (single isomer, unassigned) [Example 214B] to `COCC1(C)CC(N2C(=N)NC(C)(C)CC2=O)c2cc(C(=O)N[C@@H]3c4ccccc4OC(C)(C)[C@H]3O)ccc2O1` (single isomer, unassigned) [Example 282B], the EC50 falls from 260 nM to 40.5 nM (6.4-fold).

`CCC1(CC)CC(=O)N([C@@H]2CCOc3ccc(C(=O)NC4c5cc(F)ccc5OCC4(C)O)cc32)C(=N)N1` (single isomer, unassigned) [Example 226B] and `CCC1(CC)CC(=O)N([C@@H]2CCOc3ccc(C(=O)NC4c5ccc(OC)cc5OCC4(C)O)cc32)C(=N)N1` (single isomer, unassigned) [Example 258A] are within 1.5-fold of each other in EC50: 69 nM for the first, 85.9 nM for the second.

Going from `CCC1(CC)CC(=O)N([C@@H]2CCOc3ccc(C(=O)NC4c5cc(F)ccc5OCC4(C)O)cc32)C(=N)N1` (single isomer, unassigned) [Example 226C] to `CCC1(CC)CC(=O)N([C@@H]2CCOc3ccc(C(=O)NC4c5ccc(OC)cc5OCC4(C)O)cc32)C(=N)N1` (single isomer, unassigned) [Example 258B], the EC50 falls from 273 nM to 2.4 nM (110-fold). The second is the more potent here.

Going from `CCC1(CC)CC(=O)N([C@@H]2CCOc3ccc(C(=O)NC4c5cc(F)ccc5OCC4(C)O)cc32)C(=N)N1` (single isomer, unassigned) [Example 226D] to `CCC1(CC)CC(=O)N([C@@H]2CCOc3ccc(C(=O)NC4c5ccc(OC)cc5OCC4(C)O)cc32)C(=N)N1` (single isomer, unassigned) [Example 258C], the EC50 rises from 1 nM to 226 nM (230-fold). The first is the more potent here.

Compared with `CC1(C)CC(=O)N([C@@H]2CCOc3ccc(C(=O)NC4c5ccccc5OCC4(O)C(F)(F)F)cc32)C(=N)N1` (single isomer, unassigned) [Example 234A], `CCC1(CC)CC(=O)N([C@@H]2CCOc3ccc(C(=O)NC4c5ccccc5CC4(O)C(F)(F)F)cc32)C(=N)N1` (single isomer, unassigned) [Example 272A] is 2.8-fold higher in EC50: 22.5 nM for the first, 62.5 nM for the second. The first is the more potent here.

Compared with `CC1(C)CC(=O)N([C@@H]2CCOc3ccc(C(=O)NC4c5ccccc5OCC4(O)C(F)(F)F)cc32)C(=N)N1` (single isomer, unassigned) [Example 234B], `CCC1(CC)CC(=O)N([C@@H]2CCOc3ccc(C(=O)NC4c5ccccc5CC4(O)C(F)(F)F)cc32)C(=N)N1` (single isomer, unassigned) [Example 272B] is 3.7-fold higher in EC50: 3.9 nM for the first, 14.3 nM for the second.

Going from `CC1(C)CC(=O)N([C@@H]2CCOc3ccc(C(=O)NC4c5ccccc5OCC4(O)C(F)(F)F)cc32)C(=N)N1` (single isomer, unassigned) [Example 234C] to `CCC1(CC)CC(=O)N([C@@H]2CCOc3ccc(C(=O)NC4c5ccccc5CC4(O)C(F)(F)F)cc32)C(=N)N1` (single isomer, unassigned) [Example 272C], the EC50 falls from 43.2 nM to 0.9 nM (48-fold).

Compared with `CCC1(CC)CC(=O)N([C@@H]2CCOc3ccc(C(=O)NC4c5ccccc5OC(C)(C)C4(C)O)cc32)C(=N)N1` (single isomer, unassigned) [Example 242A], `CCC1(CC)CC(=O)N([C@@H]2CCOc3ccc(C(=O)NC4c5ccc(OC)cc5OCC4(C)O)cc32)C(=N)N1` (single isomer, unassigned) [Example 258D] is 11-fold higher in EC50: 0.6 nM for the first, 6.7 nM for the second. The first is the more potent here.

`CCC1(CC)CC(=O)N([C@@H]2CCOc3ccc(C(=O)NC4c5ccccc5OC(C)(C)C4(C)O)cc32)C(=N)N1` (single isomer, unassigned) [Example 242B] and `CCC1(CC)CC(=O)N([C@@H]2CCOc3ccc(C(=O)NC4c5c(OC)cccc5OCC4(C)O)cc32)C(=N)N1` (single isomer, unassigned) [Example 259D] are within 1.5-fold of each other in EC50: 10.5 nM for the first, 10.6 nM for the second.

First: CCC1(CC)CC(=O)N(C2c3cc(C(=O)N[C@@H]4c5ccccc5OC(C)(C)[C@H]4O)ccc3CC2OC)C(=N)N1 (single isomer, unassigned) [Example 251A]
Second: CCC1(CC)CC(=O)N([C@@H]2CCOc3ccc(C(=O)NC4c5ccccc5CC4(O)C(F)(F)F)cc32)C(=N)N1 (single isomer, unassigned) [Example 272D]
The EC50 of the first is 5.7-fold lower: 0.4 nM for the first, 2.3 nM for the second.

`CCC1(CC)CC(=O)N(C2c3cc(C(=O)N[C@@H]4c5ccccc5OC(C)(C)[C@H]4O)ccc3CC2OC)C(=N)N1` (single isomer, unassigned) [Example 251B] showed an EC50 of 1.5 nM.
`CCC1(CC)CC(=O)N(C2c3cc(C(=O)N[C@@H]4c5ccccc5OC(C)(C)[C@H]4O)ccc3CC2OC)C(=N)N1` (single isomer, unassigned) [Example 251C] gave an EC50 of 84.4 nM.

same assay, conditions: Plasmodium falciparum, Erythrocyte, 72 h, 0.7% rings, 2% haematocrit, 72 hours at 37° C., LDH readout of parasite growth

First: CCC1(CC)CC(=O)N([C@H]2c3cc(C(=O)NC4c5ccccc5C(F)(F)[C@@H]4O)ccc3O[C@@]2(C)COC)C(=N)N1 (stereo in doubt) [Example 291, (2R,3S)-3-(4,4-diethyl-2-imino-6-oxo-hexahydropyrimidin-1-yl)-N-[(1S,2R)-3,3-difluoro-2-hydroxy-indan-1-yl]-2-(methoxymethyl)-2-methyl-3H-benzofuran-5-carboxamide]
Second: CCC1(CC)CC(=O)N(C2CCOc3ccc(C(=O)N[C@@H]4c5ccccc5OC(C)(C)[C@H]4O)cc32)C(=N)N1 (stereo partly drawn) [Example 2A, 4-(4,4-diethyl-2-imino-6-oxotetrahydropyrimidin-1(2H)-yl)-N-((3S,4R)-3-hydroxy-2,2-dimethylchroman-4-yl)chroman-6-carboxamide]
The EC50 of the first is 480-fold higher: 240 nM for the first, 0.5 nM for the second. The second is the more potent here.

First: CCC1(CC)CC(=O)N(C2CCOc3ccc(C(=O)N[C@H]4CC(C)(C)Oc5ccccc54)cc32)C(=N)N1 (stereo partly drawn) [Example 1A, 4-(4,4-diethyl-2-imino-6-oxotetrahydropyrimidin-1(2H)-yl)-N—((S)-2,2-dimethylchroman-4-yl)chroman-6-carboxamide]
Second: CCC1(CC)CC(=O)N([C@@H]2CCOc3ccc(C(=O)N[C@H]4CCOc5ccccc54)cc32)C(=N)N1 [Example 3A, (R)-N-((S)-chroman-4-yl)-4-(4,4-diethyl-2-imino-6-oxotetrahydropyrimidin-1(2H)-yl)chromane-6-carboxamide]
The EC50 of the first is 4.4-fold lower: 0.5 nM for the first, 2.2 nM for the second. The first is the more potent here.

First: CCC1(CC)CC(=O)N([C@@H]2CCOc3ccc(C(=O)N[C@@H](C)c4ccccc4)cc32)C(=N)N1 [Example 4A, (R)-4-(4,4-diethyl-2-imino-6-oxotetrahydropyrimidin-1(2H)-yl)-N-((S)-1-phenylethyl)chromane-6-carboxamide]
Second: CCC1(CC)CC(=O)N([C@@H]2CCOc3ccc(C(=O)N[C@@H]4c5ccccc5C[C@H]4O)cc32)C(=N)N1 [Example 5A, (R)-4-(4,4-diethyl-2-imino-6-oxotetrahydropyrimidin-1(2H)-yl)-N-((1R,2R)-2-hydroxy-2,3-dihydro-1H-inden-1-yl)chromane-6-carboxamide]
The EC50 of the first is 15-fold higher: 87 nM for the first, 5.9 nM for the second. The second is the more potent here.

Compared with `CCC1(CC)CC(=O)N([C@@H]2CCOc3ccc(C(=O)N[C@H]4C[C@H](C(F)(F)F)Oc5ccccc54)cc32)C(=N)N1` [Example 6A, (R)-4-(4,4-diethyl-2-imino-6-oxotetrahydropyrimidin-1(2H)-yl)-N-((2R,4S)-2-(trifluoromethyl)chroman-4-yl)chromane-6-carboxamide], `CCC1(CC)CC(=O)N([C@@H]2CCOc3ccc(C(=O)N[C@@H]4C[C@@H](C(F)(F)F)Oc5ccccc54)cc32)C(=N)N1` [Example 6B, (R)-4-(4,4-diethyl-2-imino-6-oxotetrahydropyrimidin-1(2H)-yl)-N-((2S,4R)-2-(trifluoromethyl)chroman-4-yl)chromane-6-carboxamide] is 8-fold higher in EC50: 1.1 nM for the first, 8.8 nM for the second.
